# Test results from patent US8680269B2, “Pesticidal compositions” (Dow AgroSciences, LLC., priority 2009, dated 2014).
# Key:
# Assay type in all cases: in vivo
# [1] = tested on: corn earworm (CEW; Helicoverpa zea); experiment: Insecticidal test for corn earworm, 128-well diet tray assay; details: 144 h, 50 μg/cm2 on artificial diet, second instar larvae, six days at 25° C.
# Description: (§1) Bioassays on corn earworm (CEW; Helicoverpa zea: Lepidoptera) were conducted using a 128-well diet tray assay. Three to five second instar CEW larvae were placed in each well (3 mL) of the diet tray that had been previously filled with 1 mL of artificial diet to which 50 μg/cm^2 of the test compound (dissolved in 50 μL of 90:10 acetone-water mixture) had been applied (to each of eight wells) and then allowed to dry. Trays were covered with a clear self-adhesive cover, and held at 25° C., 14:10 light-dark for six days. Percent mortality was recorded for the larvae in each well; activity in the eight wells was then averaged.
# [2] = tested on: beet armyworm (BAW; Spodoptera exigua); experiment: Insecticidal test for beet armyworm, 128-well diet tray assay; details: 144 h, 50 μg/cm2 on artificial diet, second instar larvae, six days at 25° C.
# Description: as §1, with “beet armyworm (BAW; Spodoptera exigua:” for “corn earworm (CEW; Helicoverpa zea:”, “BAW” for “CEW”
# [3] = tested on: green peach aphid (Myzus persicae); experiment: Insecticidal test for green peach aphid in foliar spray assay; details: 72 h, 200 ppm foliar spray on cabbage seedlings, graded after three days, Abbott corrected % control, read-out: Mortality GPA 200 ppm
# Description: Cabbage seedlings grown in 3-inch pots, with 2-3 small (3-5 cm) true leaves, were used as test substrate. The seedlings were infested with 20-50 green peach aphids (wingless adult and nymph) one day prior to chemical application. Four pots with individual seedlings were used for each treatment. Compounds (2 mg) were dissolved in 2 mL of acetone/methanol (1:1) solvent, forming stock solutions of 1000 ppm. The stock solutions were diluted 5× with 0.025% Tween 20 in H2O to obtain the test solution at 200 ppm. A hand-held Devilbiss sprayer was used for spraying a solution to both sides of cabbage leaves until runoff. Reference plants (solvent check) were sprayed with the diluent only. Treated plants were held in a holding room for three days at approximately 25° C. and 40% relative humidity (RH) prior to grading. Evaluation was conducted by counting the number of live aphids per plant under a microscope. Insecticidal activity data, measured by using Abbott's correction formula, are presented in Table 2: Corrected % Control=100*(X−Y)/X • where X=No. of live aphids on solvent check plants • Y=No. of live aphids on treated plants
Structure (SMILES),mortality at 50 µg/cm2 [1] [%],mortality at 50 µg/cm2 [2] [%],mortality at 200 ppm [3] [%]
CCc1cccc(CC)c1NC(=S)N/N=C/c1ccc(-c2ncn(-c3ccc(OC(F)(F)F)cc3)n2)cc1 [Compound 76],50 to 100,50 to 100,< 80
CCOc1ccc(NC(=S)N/N=C/c2ccc(-c3ncn(-c4ccc(OC(F)(F)F)cc4)n3)cc2)cc1 [Compound 58],50 to 100,50 to 100,< 80
COc1ccc(NC(=S)N/N=C(\C)c2ccc(-c3ncn(-c4ccc(OC(F)(F)F)cc4)n3)cc2)c(C)c1 [Compound 109],50 to 100,50 to 100,< 80
COc1ccc(NC(=S)N/N=C/c2ccc(-c3ncn(-c4ccc(OC(F)(F)F)cc4)n3)cc2)cc1 [Compound 28],50 to 100,50 to 100,< 80
CCOC(=O)CNC(=S)N/N=C/c1ccc(-c2ncn(-c3ccc(OC(F)(F)F)cc3)n2)cc1 [Compound 30],50 to 100,50 to 100,< 80
"CN(C)c1cccc(NC(=S)N/N=C/c2ccc(-c3ncn(-c4ccc(OC(F)(F)F)cc4)n3)cc2)c1 [Compound 2, N-(3-(dimethylamino)phenyl)-2-(4-(1-(4-(trifluoromethoxy)phenyl)-1H-1,2,4-triazol-3-yl)benzylidene)hydrazinecarbothioamide]",50 to 100,50 to 100,< 80
FC(F)(F)Oc1ccc(-n2cnc(-c3ccc(/C=N/NC(=S)NCCOc4ccccn4)cc3)n2)cc1 [Compound 17],50 to 100,50 to 100,< 80
FC(F)(F)Oc1ccc(-n2cnc(-c3ccc(/C=N/NC(=S)Nc4c(Cl)cccc4Cl)cc3)n2)cc1 [Compound 29],50 to 100,50 to 100,< 80
Fc1ccc(NC(=S)N/N=C/c2ccc(-c3ncn(-c4ccc(OC(F)(F)F)cc4)n3)cc2)cc1 [Compound 10],50 to 100,50 to 100,< 80
O=C(c1ccccc1NC(=S)N/N=C/c1ccc(-c2ncn(-c3ccc(OC(F)(F)F)cc3)n2)cc1)C(F)(F)F [Compound 61],50 to 100,50 to 100,< 80
N#Cc1ccccc1NC(=S)N/N=C/c1ccc(-c2ncn(-c3ccc(OC(F)(F)F)cc3)n2)cc1 [Compound 53],50 to 100,50 to 100,< 80
COc1ccc(NC(=S)N/N=C/c2ccc(-c3ncn(-c4ccc(OC(F)(F)F)cc4)n3)cc2)c(OC)c1 [Compound 45],50 to 100,50 to 100,< 80
FC(F)(F)c1ccc(-c2cn(-c3ccc(/C=N/NC(=S)Nc4c(Cl)cccc4Cl)cc3)cn2)cc1 [Compound 70],50 to 100,50 to 100,< 80
C/C(=N\NC(=S)Nc1c(C)cccc1C)c1ccc(-c2ncn(-c3ccc(OC(F)(F)F)cc3)n2)cc1 [Compound 126],50 to 100,50 to 100,< 80
FC(F)(F)Oc1ccc(-n2cnc(-c3ccc(/C=N/NC(=S)Nc4ccccc4Cl)cc3)n2)cc1 [Compound 54],< 50,< 50,< 80
CN(C)c1ncc(NC(=S)N/N=C/c2ccc(-c3ncn(-c4ccc(OC(F)(F)F)cc4)n3)cc2)cn1 [Compound 43],50 to 100,50 to 100,< 80
COc1ccc(NC(=S)N/N=C/c2ccc(-n3cnc(-c4ccc(C(F)(F)F)cc4)c3)cc2)cc1 [Compound 69],50 to 100,50 to 100,< 80
FC(F)(F)Oc1ccc(-n2cnc(-c3ccc(/C=N/NC(=S)NCCN4CCOCC4)cc3)n2)cc1 [Compound 16],50 to 100,50 to 100,< 80
CN(C)c1ccc(NC(=S)N/N=C/c2ccc(-c3ncn(-c4ccc(OC(F)(F)F)cc4)n3)cc2)cc1 [Compound 1],50 to 100,50 to 100,< 80
CS(=O)(=O)c1ccccc1NC(=S)N/N=C/c1ccc(-c2ncn(-c3ccc(OC(F)(F)F)cc3)n2)cc1 [Compound 52],50 to 100,50 to 100,< 80
COc1cc(C)c(NC(=S)N/N=C/c2ccc(-c3ncn(-c4ccc(C(F)(F)F)cc4)n3)cc2)c(C)c1 [Compound 127],50 to 100,50 to 100,< 80

Structure (SMILES),mortality at 50 µg/cm2 [1] [%],mortality at 50 µg/cm2 [2] [%],mortality at 200 ppm [3] [%]
Cc1ccccc1NC(=S)N/N=C/c1ccc(-c2ncn(-c3ccc(OC(F)(F)F)cc3)n2)cc1 [Compound 71],50 to 100,50 to 100,< 80
COc1ccc(C(C)NC(=S)N/N=C/c2ccc(-c3ncn(-c4ccc(OC(F)(F)F)cc4)n3)cc2)cc1 (centres unmarked) [Compound 143],50 to 100,50 to 100,
Cc1cc(C)c(NC(=S)N/N=C/c2ccc(-c3ncn(-c4ccc(OC(F)(F)C(F)(F)F)cc4)n3)cc2)c(C)c1 [Compound 123],50 to 100,50 to 100,
COc1cc(C)ccc1NC(=S)N/N=C/c1ccc(-c2ncn(-c3ccc(OC(F)(F)F)cc3)n2)cc1 [Compound 117],50 to 100,50 to 100,
COc1ccc(NC(=S)N/N=C/c2ccc(-c3ncn(-c4ccc(OC(F)(F)F)cc4)n3)cc2)c(C(C)C)c1 [Compound 121],50 to 100,50 to 100,
COC(=O)C1CC(c2ccc(/C=N/NC(=S)Nc3c(C)cccc3C)cc2)=NN1c1ccc(OC(F)(F)F)cc1 (centres unmarked) [Compound 130],50 to 100,50 to 100,
CSc1cc(C)c(NC(=S)N/N=C/c2ccc(-c3ncn(-c4ccc(OC(F)(F)F)cc4)n3)cc2)c(C)c1 [Compound 100],50 to 100,50 to 100,
CC(NC(=S)N/N=C/c1ccc(-c2ncn(-c3ccc(OC(F)(F)F)cc3)n2)cc1)c1ccsc1 (centres unmarked) [Compound 155],50 to 100,50 to 100,
Cc1cccc(C)c1NC(=S)N/N=C/c1ccc(C2=NN(c3ccc(OC(F)(F)F)cc3)CC2)cc1 [Compound 140],50 to 100,50 to 100,
Cc1ccnc(C)c1NC(=S)N/N=C/c1ccc(-c2ncn(-c3ccc(OC(F)(F)F)cc3)n2)cc1 [Compound 102],50 to 100,50 to 100,
Fc1cc(F)c(NC(=S)N/N=C/c2ccc(-c3ncn(-c4ccc(OC(F)(F)F)cc4)n3)cc2)c(F)c1 [Compound 98],50 to 100,50 to 100,
CCCc1ccccc1NC(=S)N/N=C/c1ccc(-c2ncn(-c3ccc(OC(F)(F)F)cc3)n2)cc1 [Compound 82],50 to 100,50 to 100,
COc1ccc(C(C)NC(=S)N/N=C/c2ccc(-c3ncn(-c4ccc(OC(F)(F)F)cc4)n3)cc2)cc1OC (centres unmarked) [Compound 151],50 to 100,50 to 100,
CCc1cccc(CC)c1NC(=S)N/N=C(\C)c1ccc(-c2ncn(-c3ccc(OC(F)(F)F)cc3)n2)cc1 [Compound 110],50 to 100,50 to 100,
CC(NC(=S)N/N=C/c1ccc(-c2ncn(-c3ccc(OC(F)(F)F)cc3)n2)cc1)c1ccc2c(c1)OCO2 (centres unmarked) [Compound 159],50 to 100,50 to 100,
Cc1ccsc1CNC(=S)N/N=C/c1ccc(-c2ncn(-c3ccc(OC(F)(F)F)cc3)n2)cc1 [Compound 156],50 to 100,50 to 100,
Cc1cccc(C)c1NC(=S)N/N=C/c1ccc(-c2ccn(-c3ccc(OC(F)(F)F)cc3)n2)cc1 [Compound 136],50 to 100,50 to 100,
Cc1cc(C)c(NC(=S)N/N=C/c2ccc(-c3ncn(-c4ccc(OC(F)(F)F)cc4)n3)cc2)c(C)c1 [Compound 93],50 to 100,50 to 100,
Cc1ccc(NC(=S)N/N=C/c2ccc(-c3ncn(-c4ccc(OC(F)(F)F)cc4)n3)cc2)cc1 [Compound 92],50 to 100,50 to 100,
COc1ccc(NC(=S)N(C)/N=C/c2ccc(-c3ncn(-c4ccc(OC(F)(F)F)cc4)n3)cc2)c(C)c1 [Compound 85],50 to 100,50 to 100,
